Data on 69 compounds can be found in US9624228B2, “Inhibitors of ERK and methods of use” (KURA ONCOLOGY, INC., priority 2013, dated 2017).

A value given as a limit tells only on which side of the number the result lay.

Chain of ERK2 enzyme (P28482 whole entry): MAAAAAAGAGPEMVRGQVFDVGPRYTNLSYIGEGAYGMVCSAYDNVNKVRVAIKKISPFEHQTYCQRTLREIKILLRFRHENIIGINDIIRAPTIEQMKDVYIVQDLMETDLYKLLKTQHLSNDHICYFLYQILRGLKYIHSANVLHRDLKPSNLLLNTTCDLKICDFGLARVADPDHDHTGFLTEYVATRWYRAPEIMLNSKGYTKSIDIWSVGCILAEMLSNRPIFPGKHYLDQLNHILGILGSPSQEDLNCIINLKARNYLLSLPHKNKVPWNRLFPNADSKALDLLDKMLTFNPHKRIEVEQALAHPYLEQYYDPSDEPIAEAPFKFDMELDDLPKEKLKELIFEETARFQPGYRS

The target in this assay is ERK2 enzyme (Homo sapiens (Human), UniProt P28482). As to the kind of experiment: Inhibition assay of ERK (Z'-LYTE kinase assay, Ser/Thr 3 peptide substrate). It is filed as biochemical. Particulars: In vitro ERK2 enzyme, 100 μM ATP. As to the method:
The inhibition of ERK activity by the compounds disclosed herein was determined using the Z′-LYTE kinase assay kit (Life Technologies) with a Ser/Thr 3 peptide substrate (Life Technologies) according to manufacturers' instructions. […] The IC50 values for the compounds were determined with 3-fold serial dilutions in duplicate. […] The final DMSO concentration in the assay was 1%. Final reaction volume was 20 μL/well in 384-well plates. Kinase reactions were conducted or 1 hour followed by the assay development reaction (1 hour) in a 20 ul/well in a 384 well plate format.
The IC50 is the concentration needed to halve the response being measured. Compound `COc1cc(-c2n[nH]c3cc4c(cc23)CN(Cc2ccc(F)c(Cl)c2)C(=O)N4)ccn1` [Compound 38] displayed an IC50 below 50 nM.

In turn, `Cc1cc(-c2n[nH]c3cc4c(cc23)CN(Cc2ccc(C#N)cc2)C(=O)N4)ccn1` [Compound 39] came in with an IC50 below 50 nM.

For the compound `O=C1Nc2cc3[nH]nc(-c4ccc(F)cc4)c3cc2CN1Cc1ccc(F)c(Cl)c1` [Compound 40], the IC50 lay in the range of 50 to 250 nM.

In turn, `Cn1cc(-c2n[nH]c3cc4c(cc23)CN(Cc2ccc(F)c(Cl)c2)C(=O)N4)ccc1=O` [Compound 41] yielded an IC50 below 50 nM.

Regarding `O=C1Nc2cc3[nH]nc(C4CC4)c3cc2CN1Cc1ccc(F)c(Cl)c1` [Compound 42], the IC50 is 50 to 250 nM.

The compound `Cc1cc(-c2n[nH]c3cc4c(cc23)CN(CCO)C(=O)N4)ccn1` [Compound 43] had an IC50 below 50 nM.

The compound `Cc1cc(-c2n[nH]c3cc4c(cc23)CN(C2CCOCC2)C(=O)N4)ccn1` [Compound 44] had an IC50 below 50 nM.

Compound `COCCOCCN1Cc2cc3c(-c4ccnc(C)c4)n[nH]c3cc2NC1=O` [Compound 45] returned an IC50 below 50 nM.

For the compound `Cc1cc(-c2n[nH]c3cc4c(cc23)CN(CCN(C)C)C(=O)N4)ccn1` [Compound 46], the IC50 is 50 to 250 nM.

`Cc1cc(-c2n[nH]c3cc4c(cc23)CN(Cc2cscn2)C(=O)N4)ccn1` [Compound 47] registered an IC50 below 50 nM.

For `O=C1Nc2cc3[nH]nc(-c4cn[nH]c4)c3cc2CN1Cc1ccc(F)c(Cl)c1` [Compound 48], the IC50 was below 50 nM.

For `Cc1cc(-c2n[nH]c3cc4c(cc23)CN([C@@H]2CCCOC2)C(=O)N4)ccn1` [Compound 49], the IC50 is below 50 nM.

The compound `Cc1cc(-c2n[nH]c3cc4c(cc23)CN(CCc2cccc(Cl)c2)C(=O)N4)ccn1` [Compound 50] came in with an IC50 below 50 nM.

Compound `Cc1cc(-c2n[nH]c3cc4c(cc23)CN(CCN2CCOCC2)C(=O)N4)ccn1` [Compound 51] yielded a 50% inhibitory concentration (IC50) below 50 nM.

On to `COCCN1Cc2cc3c(-c4ccnc(C)c4)n[nH]c3cc2NC1=O` [Compound 52], for which the IC50 was below 50 nM.

As for `Cc1cc(-c2n[nH]c3cc4c(cc23)CN(C(C)CC(C)C)C(=O)N4)ccn1` (stereo not drawn) [Compound 53], the IC50 was below 50 nM.

Compound `Cc1cc(-c2n[nH]c3cc4c(cc23)CN([C@H](C)CO)C(=O)N4)ccn1` [Compound 54] gave an IC50 below 50 nM.

`Cc1cc(-c2n[nH]c3cc4c(cc23)CN(Cc2cccc(C#N)c2)C(=O)N4)ccn1` [Compound 55] displayed an IC50 below 50 nM.

For `Cc1cc(-c2n[nH]c3cc4c(cc23)CN(Cc2nccs2)C(=O)N4)ccn1` [Compound 56], the IC50 is below 50 nM.

The compound `O=C1Nc2cc3[nH]nc(-c4cccnc4)c3cc2CN1Cc1cccc(Cl)c1` [Compound 57] came in with an IC50 below 50 nM.

`Cc1ccc(-c2n[nH]c3cc4c(cc23)CN(Cc2cccc(Cl)c2)C(=O)N4)cn1` [Compound 58]: the IC50 was below 50 nM.

Compound `O=C1Nc2cc3[nH]nc(-c4ccc5nncn5c4)c3cc2CN1Cc1cccc(Cl)c1` [Compound 59] showed an IC50 below 50 nM.

`O=C1Nc2cc3[nH]nc(-c4cn[nH]c4)c3cc2CN1Cc1cccc(Cl)c1` [Compound 60] registered an IC50 below 50 nM.

Take `O=C1Nc2cc3[nH]nc(-c4ccc(=O)[nH]c4)c3cc2CN1Cc1cccc(Cl)c1` [Compound 61]: the IC50 is below 50 nM.

On to `Cc1cc(-c2n[nH]c3cc4c(cc23)CN([C@@H]2CCCN(CC3CC3)C2)C(=O)N4)ccn1` [Compound 62], for which the IC50 lay within 50 to 250 nM.

Compound `Cc1cc(-c2n[nH]c3cc4c(cc23)CN([C@@H]2CCCN(Cc3ccccc3)C2)C(=O)N4)ccn1` [Compound 63] displayed an IC50 below 50 nM.

For the compound `CCC(c1ccccc1)c1cc2cc3c(-c4ccnc(C)c4)n[nH]c3cc2[nH]c1=O` (stereo not drawn) [Compound 64], the IC50 was below 50 nM.

Consider `Cc1cc(-c2n[nH]c3cc4c(cc23)CN(Cc2ccc(CC#N)cc2)C(=O)N4)ccn1` [Compound 65], for which the IC50 was below 50 nM.

As for `Cc1cc(-c2n[nH]c3cc4c(cc23)CN(CCc2ccc(F)cc2)CC(=O)N4)ccn1` [Compound 67], the IC50 fell in the range of 250 to 1000 nM.

In turn, `COc1ncc(-c2n[nH]c3cc4c(cc23)CN(Cc2cccc(Cl)c2)C(=O)N4)cn1` [Compound 68] showed an IC50 below 50 nM.

Compound `Cc1cc(-c2n[nH]c3cc4c(cc23)CN(C2CCN(CC3CC3)CC2)C(=O)N4)ccn1` [Compound 69] displayed an IC50 of 50 to 250 nM.

The compound `Cc1cc(-c2n[nH]c3cc4c(cc23)CN(C2CCN(Cc3ccccc3)CC2)C(=O)N4)ccn1` [Compound 70] came in with an IC50 below 50 nM.

With `COc1ncc(-c2n[nH]c3cc4c(cc23)CN([C@H](C)c2cccc(Cl)c2)C(=O)N4)cn1` [Compound 71], the IC50 was below 50 nM.

In turn, `COc1ncc(-c2n[nH]c3cc4c(cc23)CN(Cc2ccc(F)cc2)C(=O)N4)cn1` [Compound 72] came in with an IC50 below 50 nM.

With `Cc1cc(-c2n[nH]c3cc4[nH]c(=O)c(C(C)Cc5ccc(F)cc5)cc4cc23)ccn1` (stereo not drawn) [Compound 73], the IC50 was above 1000 nM.

For `COc1ccc(-c2n[nH]c3cc4c(cc23)CN([C@H](C)c2cccc(Cl)c2)C(=O)N4)cn1` [Compound 74], the IC50 is 50 to 250 nM.

As for `COc1ccc(-c2n[nH]c3cc4c(cc23)CN(Cc2cccc(Cl)c2)C(=O)N4)cn1` [Compound 75], the IC50 is below 50 nM.

In the case of `COc1ccc(-c2n[nH]c3cc4c(cc23)CN(Cc2ccc(F)cc2)C(=O)N4)cn1` [Compound 76], the IC50 is below 50 nM.

`Cc1cc(-c2n[nH]c3cc4c(cc23)CN(Cc2cccc(Cl)c2)C(=O)N4)cc(C)n1` [Compound 77]: the IC50 was below 50 nM.

`O=C1Nc2cc3[nH]nc(N4CCOCC4)c3cc2CN1Cc1cccc(Cl)c1` [Compound 78] registered an IC50 below 50 nM.

`COc1ccc(-c2n[nH]c3cc4c(cc23)CN(CCc2ccc(F)cc2)C(=O)N4)cn1` [Compound 79]: the IC50 is below 50 nM.

Take `COc1ncc(-c2n[nH]c3cc4c(cc23)CN(CCc2ccc(F)cc2)C(=O)N4)cn1` [Compound 80]: the IC50 is below 50 nM.

Take `COc1ncc(-c2n[nH]c3cc4c(cc23)CN(CC2CCNCC2)C(=O)N4)cn1` [Compound 81]: the IC50 lay within 250 to 1000 nM.

Consider `COc1ncc(-c2n[nH]c3cc4c(cc23)CN(CC2CCN(CC3CC3)CC2)C(=O)N4)cn1` [Compound 82], for which the IC50 lay within 250 to 1000 nM.

For `Cc1cc(-c2n[nH]c3cc4c(cc23)CN(CCN)C(=O)N4)ccn1` [Compound 83], the IC50 was below 50 nM.

`Cc1cc(-c2n[nH]c3cc4[nH]c(=O)c([C@H](C)c5ccccc5)cc4cc23)ccn1` [Compound 84] registered an IC50 below 50 nM.

With `COc1ccc(-c2n[nH]c3cc4c(cc23)CN(CCc2cccc(Cl)c2)C(=O)N4)cn1` [Compound 85], the IC50 was below 50 nM.

For `COc1ncc(-c2n[nH]c3cc4c(cc23)CN(CCc2cccc(Cl)c2)C(=O)N4)cn1` [Compound 86], the IC50 was below 50 nM.

On to `COc1ccc(-c2n[nH]c3cc4c(cc23)CN(Cc2ccc(F)cc2F)C(=O)N4)cn1` [Compound 87], for which the IC50 is below 50 nM.

Compound `COc1ncc(-c2n[nH]c3cc4c(cc23)CN(Cc2cc(F)cc(F)c2)C(=O)N4)cn1` [Compound 88] showed a concentration for half-maximal inhibition (IC50) below 50 nM.

Turning to `CS(=O)(=O)c1ccc(-c2n[nH]c3cc4c(cc23)CN(Cc2cccc(Cl)c2)C(=O)N4)cc1` [Compound 89], the IC50 is below 50 nM.

In the case of `Cc1ncc(-c2n[nH]c3cc4c(cc23)CN(Cc2cccc(Cl)c2)C(=O)N4)cn1` [Compound 90], the IC50 was below 50 nM.

On to `O=C1Nc2cc3[nH]nc(-c4ccccn4)c3cc2CN1Cc1cccc(Cl)c1` [Compound 91], for which the IC50 fell in the range of 50 to 250 nM.

Regarding `COc1ccc(-c2n[nH]c3cc4c(cc23)CN(Cc2cc(F)cc(F)c2)C(=O)N4)cn1` [Compound 92], the IC50 was below 50 nM.

The compound `Nc1ncc(-c2n[nH]c3cc4c(cc23)CN(Cc2cccc(Cl)c2)C(=O)N4)cn1` [Compound 93] had an IC50 below 50 nM.

With `N#Cc1ccc(-c2n[nH]c3cc4c(cc23)CN(Cc2cccc(Cl)c2)C(=O)N4)cc1` [Compound 94], the IC50 was 50 to 250 nM.

As for `COc1ncc(-c2n[nH]c3cc4c(cc23)CN([C@H](C)c2ccc(Cl)cc2)C(=O)N4)cn1` [Compound 95], the IC50 was below 50 nM.

Turning to `COc1ncc(-c2n[nH]c3cc4c(cc23)CN(C)C(=O)N4)cn1` [Compound 96], the IC50 is 50 to 250 nM.

Consider `O=C1Nc2cc3[nH]nc(-c4ccnnc4)c3cc2CN1Cc1ccc(F)cc1` [Compound 97], for which the IC50 is below 50 nM.

In the case of `COc1ncc(-c2n[nH]c3cc4c(cc23)CN(Cc2cccc(Cl)c2)CC(=O)N4)cn1` [Compound 98], the IC50 was above 1000 nM.

In turn, `COc1ncc(-c2n[nH]c3cc4c(cc23)CN(Cc2ccc(F)cc2F)C(=O)N4)cn1` [Compound 99] came in with an IC50 below 50 nM.

Compound `COc1ncc(-c2n[nH]c3cc4c(cc23)CN([C@H](C)c2cccc(C#N)c2)C(=O)N4)cn1` [Compound 100] displayed an IC50 below 50 nM.

For the compound `COc1ncc(-c2n[nH]c3cc4c(cc23)CN([C@@H]2CCCN(Cc3ccccc3F)C2)C(=O)N4)cn1` [Compound 101], the IC50 was below 50 nM.

Compound `COc1ncc(-c2n[nH]c3cc4c(cc23)CN([C@@H]2CCCN(Cc3c(F)cccc3F)C2)C(=O)N4)cn1` [Compound 102] yielded an IC50 below 50 nM.

`COc1ncc(-c2n[nH]c3cc4c(cc23)CN([C@@H]2CCCN(Cc3c(F)cccc3OC)C2)C(=O)N4)cn1` [Compound 103] registered an IC50 below 50 nM.

Regarding `COc1ncc(-c2n[nH]c3cc4c(cc23)CN([C@@H]2CCCN(Cc3ccccc3)C2)C(=O)N4)cn1` [Compound 104], the IC50 is below 50 nM.

Turning to `CCC(=O)NCCCN1Cc2cc3c(-c4cnc(OC)nc4)n[nH]c3cc2NC1=O` [Compound 105], the IC50 is below 50 nM.

On to `CCC(=O)NCCN1Cc2cc3c(-c4cnc(OC)nc4)n[nH]c3cc2NC1=O` [Compound 106], for which the IC50 lay within 50 to 250 nM.

The compound `COc1ncc(-c2n[nH]c3cc4c(cc23)CN(CCc2cccc(Cl)c2)CC(=O)N4)cn1` [Compound 107] had an IC50 of 250 to 1000 nM.
